Columns and labels:
[1] = target: T1, VPS4B (Homo sapiens, UniProt O75351); assay: VPS4B ATPase activity, EnzChek Phosphate assay; format: biochemical; design: His tag (pET28a vector-encoded) (N); made in house; host or cells: Escherichia coli BL21(DE3)
T1 sequence (O75351 1-444): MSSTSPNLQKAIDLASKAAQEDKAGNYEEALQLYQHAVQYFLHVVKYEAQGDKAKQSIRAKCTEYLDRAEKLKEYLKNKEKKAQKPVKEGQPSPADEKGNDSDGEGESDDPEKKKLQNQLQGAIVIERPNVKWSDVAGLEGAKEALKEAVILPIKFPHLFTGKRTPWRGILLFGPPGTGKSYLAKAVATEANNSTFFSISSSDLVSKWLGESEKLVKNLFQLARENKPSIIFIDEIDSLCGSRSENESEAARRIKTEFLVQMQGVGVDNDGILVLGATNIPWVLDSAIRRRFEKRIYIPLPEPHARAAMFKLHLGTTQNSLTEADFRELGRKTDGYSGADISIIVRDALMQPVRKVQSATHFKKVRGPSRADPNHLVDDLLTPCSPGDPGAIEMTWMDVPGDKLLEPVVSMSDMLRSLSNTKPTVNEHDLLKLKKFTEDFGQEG
Experimental: (§1) VPS4B and VCP ATPase activities were measured using the EnzChek Phosphate assay for the quantification of released phosphate. Assay buffers were based on literature precedents ([Cupido et al, 2019], [2021]) as follows: VPS4B buffer (20 mM HEPES-KOH, pH 7.4, 25 mM KOAc, 2 mM MgCl2, 5 mM (NH4)2SO4, 0.5 mM CaCl2, 2.5 mM DTT, 0.1 mg/mL BSA, 0.005% v/v Triton X-100), VCP buffer (20 mM HEPES-NaOH, pH 7.4, 20 mM NaCl, 10 mM MgCl2, 5 mM (NH4)2SO4, 0.5 mM CaCl2, 2.5 mM DTT, 0.1 mg/mL BSA, 0.005% v/v Triton X-100). In black clear-bottom 384-well plates, 22.5 μL of 5% DMSO or 40× test compounds diluted in the respective assay buffer was added to each well. ATPases were diluted to 1 μM in the respective buffers containing 2× EnzChek Phosphate assay coupling reagents of 400 μM MESG and 2 U of PNP, then 25 μL was added to each well. Plates were mixed at 1000 rpm for 30 minutes at RT while being protected from light. The reaction was initiated by adding 2.5 μL of 20 mM MgATP or water followed by mixing at 1200 rpm for 30 seconds at RT. Plates were measured at 360 nm using a CLARIOstar plate reader (BMG LABTECH) for 20 minutes at 37 °C. ATPase activity was calculated as the amount of phosphate released over a 5-minute interval under linear initial velocity conditions. The remaining ATPase activity was calculated by normalizing compound-treated activity values to the DMSO control. IC50 was calculated by fitting normalized values to a sigmoidal dose-response curve with Hill slope = −1 using Graph Pad Prism 10.0.
(§2) To identify VPS4i, we developed enzyme- and cell-based VPS4 functional assays to serve as VPS4i-screening platforms. For the enzyme-based assay, we used the colorimetric EnzChek Phosphate assay that detects free phosphate with the advantage of continuous measurement of ATP hydrolysis over time. […] Due to the high sequence and structural similarity of AAA-ATPases, we also established a VCP ATPase assay to evaluate hit selectivity. […] For the cell-based assay, our approach was based on how VPS4 inhibition causes the accumulation of ESCRT-III ([Babst et al, 1998]; [Katoh et al, 2003]). We used an N-terminal GFP-tagged CHMP4B reporter system because it is the most abundant ESCRT-III subunit ([Katoh et al, 2004]; [Teis et al, 2008]). Our aim was to test compounds under short-term serum and amino acid starvation to stimulate ESCRT activity for easier detection of inhibitors ([Takahashi et al, 2018], [2019]). […] Overall, we established 2 systems for VPS4i screening, a VPS4B ATPase activity assay and a GFP-CHMP4B accumulation cell-based assay.

[2] = target: T2, recombinant human VCP (Rattus norvegicus, UniProt P46462); assay: VCP ATPase activity, EnzChek Phosphate assay; format: biochemical
T2 construct: His (N); host or cells: Escherichia coli BL21(DE3)
Experimental: as §1, §2

[3] = test system: GFP-CHMP4B-expressing U2OS cells; assay: GFP-CHMP4B accumulation cell-based assay (high-content microscopy)
Experimental: Plates were then scanned using the 20× objective for 1 hour with ≥100 cells/well across 6 fields/well. […] For all other assays, the cells were cultured overnight in black glass-bottom 96-well plates (Cellvis; P96-1.5H-N) then stained, rinsed, and treated with SM containing the indicated compounds (0.1% DMSO or 0.1% DMSO/0.1% ethanol [vehicle] final). Plates were scanned using the 20× NA .70 objective at the indicated intervals with ≥ 300 cells/well across 3 fields/well. […]

[4] = screened at 5 µM, mean ± S.D., Supplemental Table 2
[5] = screened at 1 µM, mean ± S.D., Supplemental Table 2
[6] = remaining ATPase activity, screened at 5 μM, mean ± SD, Table 1
[7] = remaining ATPase activity, screened at 5 μM, mean ± SD, Table 2
[8] = screened at 1 μM, starvation media, 1 hour, foci intensity per cell normalized to 4-107, mean ± SD, Table 1

T2 sequence (P46462 2-806 limits assumed): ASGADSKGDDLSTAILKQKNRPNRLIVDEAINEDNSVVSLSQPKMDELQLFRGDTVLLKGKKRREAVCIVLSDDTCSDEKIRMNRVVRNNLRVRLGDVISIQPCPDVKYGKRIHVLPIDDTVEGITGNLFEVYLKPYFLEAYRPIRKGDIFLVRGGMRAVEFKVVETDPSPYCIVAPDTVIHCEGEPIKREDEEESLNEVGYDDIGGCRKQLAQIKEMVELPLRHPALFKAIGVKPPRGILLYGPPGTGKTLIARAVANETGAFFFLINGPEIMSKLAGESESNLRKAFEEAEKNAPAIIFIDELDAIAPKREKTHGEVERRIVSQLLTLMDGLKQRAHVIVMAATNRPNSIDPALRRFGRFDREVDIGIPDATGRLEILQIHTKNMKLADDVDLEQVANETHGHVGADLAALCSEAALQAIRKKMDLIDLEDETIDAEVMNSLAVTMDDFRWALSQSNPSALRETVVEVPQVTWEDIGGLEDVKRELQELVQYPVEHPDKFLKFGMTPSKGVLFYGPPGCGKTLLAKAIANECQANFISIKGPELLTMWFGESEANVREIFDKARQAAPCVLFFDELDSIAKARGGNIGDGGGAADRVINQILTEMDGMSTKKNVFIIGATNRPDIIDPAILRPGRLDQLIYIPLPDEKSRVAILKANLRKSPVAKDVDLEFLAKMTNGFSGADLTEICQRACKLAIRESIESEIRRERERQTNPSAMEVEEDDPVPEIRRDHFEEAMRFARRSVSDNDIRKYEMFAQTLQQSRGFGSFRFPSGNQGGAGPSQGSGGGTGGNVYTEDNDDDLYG

| SMILES | VPS4B ATPase (% DMSO) [1, 4] | VCP ATPase (% DMSO) [2, 4] | GFP-CHMP4B (% 4-107) [3, 5] | VPS4B ATPase (% DMSO) [1, 6] | VCP ATPase (% DMSO) [2, 7] | GFP-CHMP4B (% 4-107) [3, 8] | VPS4B ATPase (% DMSO) ([1]; screened at 5 µM, mean ± S.D., Supplemental Table 2, listed as 5-133) | GFP-CHMP4B (% 4-107) ([3]; screened at 1 µM, mean ± S.D., Supplemental Table 2, listed as 5-133) | VPS4B ATPase (% DMSO) ([1]; screened at 5 µM, mean ± S.D., Supplemental Table 2, listed as 7-07) | GFP-CHMP4B (% 4-107) ([3]; screened at 1 µM, mean ± S.D., Supplemental Table 2, listed as 7-07) |
| --- | --- | --- | --- | --- | --- | --- | --- | --- | --- | --- |
| COc1cccc2c(NCc3ccccc3)nc(NCc3ccc(C#N)cc3)nc12 [Compound 7-05] | 54.50 ± 2.02 % DMSO | 95.43 ± 0.86 % DMSO | 42.59 ± 0.15 % 4-107 | – | – | – | – | – | – | – |
| COc1cccc2c(NCc3ccccc3)nc(NCc3cccc(C#N)c3)nc12 [Compound 17] | 55.59 ± 2.13 % DMSO | 91.83 ± 3.79 % DMSO | 82.61 ± 11.90 % 4-107 | 55.59 ± 2.13 % DMSO | 91.83 ± 5.36 % DMSO | 82.61 ± 11.90 % 4-107 | – | – | – | – |
| COc1cccc2c(NCc3ccccc3)nc(NCc3ccc(F)cc3)nc12 [Compound 5-151] | 47.66 ± 0.34 % DMSO | 93.82 ± 0.90 % DMSO | 73.02 ± 27.67 % 4-107 | – | – | – | – | – | – | – |
| COc1cccc2c(NCc3ccc(F)cc3)nc(NCc3ccc(F)cc3)nc12 [Compound 22] | 46.38 ± 2.33 % DMSO | 99.33 ± 2.70 % DMSO | 51.23 ± 26.20 % 4-107 | 46.38 ± 2.33 % DMSO | – | 51.23 ± 26.20 % 4-107 | – | – | – | – |
| COc1ccc(CNc2nc(NCc3ccccc3)c3cccc(OC)c3n2)cc1 [Compound 19] | 29.98 ± 0.49 % DMSO | 107.28 ± 1.88 % DMSO | 86.61 ± 22.39 % 4-107 | 29.98 ± 0.49 % DMSO | 107.28 ± 2.66 % DMSO | 86.61 ± 22.39 % 4-107 | – | – | – | – |
| COc1cccc2c(NCc3ccccc3)nc(NCc3cccc(F)c3)nc12 [Compound 20] | 35.22 ± 0.66 % DMSO | 80.50 ± 0.40 % DMSO | 99.48 ± 22.3 % 4-107 | 35.22 ± 0.66 % DMSO | 80.50 ± 0.57 % DMSO | 99.48 ± 22.30 % 4-107 | – | – | – | – |
| COc1ccc(CNc2nc(NCc3ccc(OC)cc3)c3cccc(OC)c3n2)cc1 [Compound 21] | 33.98 ± 3.50 % DMSO | 100.96 ± 0.28 % DMSO | 37.69 ± 13.03 % 4-107 | 33.98 ± 3.50 % DMSO | – | 37.69 ± 13.03 % 4-107 | – | – | – | – |
| Nc1cccc2c(NCc3ccccc3)nc(NCc3ccccc3)nc12 [Compound 7-31] | – | 69.70 ± 8.05 % DMSO | 48.41 ± 2.74 % 4-107 | – | – | – | – | – | – | – |
| COc1cccc(CNc2nc(NCc3ccccc3)c3cccc(OC)c3n2)c1 [Compound 5-27-2] | 51.50 ± 0.83 % DMSO | 100.03 ± 0.81 % DMSO | 71.11 ± 0.37 % 4-107 | – | – | – | – | – | – | – |
| COc1cccc2c(NCc3ccccc3)nc(Nc3ccc4scnc4c3)nc12 [Compound 5-67] | 51.60 ± 0.35 % DMSO | – | 1.60 ± 0.33 % 4-107 | – | – | – | – | – | – | – |
| COc1ccc2c(NCc3ccccc3)nc(NCc3ccccc3)nc2c1 [Compound 6] | 35.59 ± 2.28 % DMSO | 86.15 ± 0.65 % DMSO | 33.47 ± 15.62 % 4-107 | 35.59 ± 2.28 % DMSO | – | 33.47 ± 15.62 % 4-107 | – | – | – | – |
| COc1cccc2c(NCc3ccccc3)nc(NCc3ccc(C)cc3)nc12 [Compound 18] | 27.55 ± 0.01 % DMSO | 83.40 ± 3.28 % DMSO | 48.09 ± 1.26 % 4-107 | 27.55 ± 0.01 % DMSO | 83.40 ± 4.64 % DMSO | 48.09 ± 1.26 % 4-107 | – | – | – | – |
| COc1ncnc2c1ccn2-c1nc(NCCc2ccccc2)c2cccc(OC)c2n1 [Compound 5-53] | 72.71 ± 0.81 % DMSO | – | 1.68 ± 0.33 % 4-107 | – | – | – | – | – | – | – |
| COc1cccc2c(NCCc3ccccc3)nc(NCc3ccccc3)nc12 [Compound 5-73] | 41.71 ± 2.35 % DMSO | – | 5.34 ± 1.17 % 4-107 | – | – | – | – | – | – | – |
| COc1ncnc2c1ccn2-c1nc(NCCc2cccnc2)c2cccc(OC)c2n1 [Compound 5-65] | 89.36 ± 2.84 % DMSO | – | 1.69 ± 0.46 % 4-107 | – | – | – | – | – | – | – |
| COc1cccc2c(NCc3ccccc3)nc(NCc3ccccc3)nc12 [Compound 4] | – | – | – | 75.23 ± 0.63 % DMSO | – | 2.92 ± 2.81 % 4-107 | 75.23 ± 0.63 % DMSO | 2.92 ± 2.81 % 4-107 | – | – |
| COc1cccc2c(NCc3cccc(C(=O)O)c3)nc(NCc3cccc(C(=O)O)c3)nc12 [Compound 4-131-iv] | 105.12 ± 0.39 % DMSO | – | 1.10 ± 0.68 % 4-107 | – | – | – | – | – | – | – |
| COc1cccc2c(NCCc3ccc(S(N)(=O)=O)cc3)nc(-n3ccc4ccc(C(=O)O)cc43)nc12 [Compound 5-43-iv] | 99.19 ± 4.43 % DMSO | – | 1.27 ± 0.69 % 4-107 | – | – | – | – | – | – | – |
| COc1cccc2c(NCc3ccccc3)nc(NCc3ccc4ccccc4c3)nc12 [Compound 12] | 30.39 ± 0.43 % DMSO | – | 10.42 ± 6.42 % 4-107 | 30.39 ± 0.43 % DMSO | – | 10.42 ± 6.42 % 4-107 | – | – | – | – |
| COc1cccc2c(NCc3ccccc3)nc(NCc3cccc(OC(F)(F)F)c3)nc12 [Compound 16] | – | – | – | 41.50 ± 2.98 % DMSO | – | 7.52 ± 1.95 % 4-107 | – | – | 41.50 ± 2.98 % DMSO | 7.52 ± 1.95 % 4-107 |
